Earlier results on one compound are cited in patent US20260335319A1, “INJECTABLE COMPOSITIONS OF METOLAZONE” (CIPLA LIMITED, priority 2023, published 2026).

Like-named read-outs stand apart in the source and are kept apart here.

The conditions of data set [1]: relative to water.

For `Cc1ccccc1N1C(=O)c2cc(S(N)(=O)=O)c(Cl)cc2NC1C` (centres unmarked) [Metolazone, 7-chloro-1,2,3,4-tetrahydro-2-methyl-3-(2-methylphenyl)-4-oxo-6-quinazolinesulfonamide], the absorption entry reads like this: (metolazone, general) “variable absorption”; (oral immediate release tablet) “erratic absorption”. The bioavailability result (metolazone, general) is “poor bioavailability” and the bioavailability result (oral immediate release tablet) is “variable bioavailability”. In addition, the “solubility in alkali and organic solvents” value in data set [1] was “more soluble in alkali, and organic solvents”.
